Results published in patent US20020016369A1, “Use of nimesulide for the treatment of psoriasis and psoriatic arhtritis” (priority 2000, published 2002).

Test system: patients affected by psoriatic arthritis
Method: Controlled double-blind clinical trials were carried out on patients 18 to 70 years old affected by psoriatic arthritis showing at least three swollen joints, absence of rheumatoid factor and no other rheumatic conditions.
The patients, who received no previous pharmacological treatment with antirheumatic drugs during the three-month pre-study period, were treated for 4 weeks with Nimesulide (100 to 400 mg/day orally or application of a 3% gel twice a day).
At the end of the treatment period, the following parameters were evaluated:
number of tender and swollen joints
skin symptoms evaluated according to the Psoriasis Area Severity Index (PASI)

[1] = patients 18 to 70 years old, 4 weeks, 100 to 400 mg/day orally or 3% gel twice a day

## CS(=O)(=O)Nc1ccc([N+](=O)[O-])cc1Oc1ccccc1 [Nimesulide]
General statement of finding
  action on joint flogosis: beneficial action on joint flogosis
  effect on skin lesions: remarkable improvement of such lesions
[1]
  clinical efficacy in oligopolyarticular psoriatic arthritis: clinically effective in the treatment of oligopolyarticular psoriatic arthritis in a statistically significant way
  toxic or untoward effects (tolerability): no toxic or untoward effect, particularly no gastrointestinal adverse effect
